Laboratory results from patent US20080009418A1, “Selective Inhibitors” (Alchemia LTD., priority 2004, published 2008).

Key:
Human opioid (ORL1) = target: T1, Human opioid (ORL1) (Homo sapiens, UniProt P41146); test: Radioligand binding, human opioid ORL1 membranes, FlashPlate, [125I]-Nociceptin; conditions: compound at 10 μM, [125I]-Nociceptin
T1 construct: purchased Perkin Elmer Biosignal
In short: (§1)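 Cloned human receptor membranes were coated onto FlashPlate wells and incubated with radioligand and compound (added from a 0.5 mM DMSO daughter plate) for 1 hour at room temperature in the dark. Scintillation counting gave percent inhibition, with DMSO defining total and reference ligand defining non-specific binding.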

[1] = target: T2, Human melanin-concentrating hormone (MCH1) (Homo sapiens, UniProt Q99705); test: Radioligand binding, human melanin-concentrating hormone MCH1 membranes, FlashPlate, [125I]-S36057; conditions: compound at 10 μM
T2 construct: purchased Perkin Elmer Biosignal
In short: as §1

Human μ-opioid (MOP) = target: T3, Human μ-opioid (MOP) (Homo sapiens, UniProt P35372); test: Radioligand binding, human μ-opioid (MOP) membranes, FlashPlate, [3H]-Naloxone; conditions: compound at 10 μM, [3H]-Naloxone
T3 construct: purchased Perkin Elmer Biosignal
In short: as §1

Human melanocortin (MC5) = target: T4, Human melanocortin (MC5) (Homo sapiens, UniProt P33032); test: Radioligand binding, human melanocortin MC5 membranes, FlashPlate, [125I]-NDP-αMSH; conditions: compound at 10 μM, [125I]-NDP-αMSH
T4 construct: purchased Perkin Elmer Biosignal
In short: as §1

Mouse urotensin (mUR2) = target: T5, Mouse urotensin (mUR2) (Mus musculus, UniProt Q8VIH9); test: Radioligand binding, mouse urotensin mUR2 membranes, FlashPlate, [125I]-Urotensin II; conditions: compound at 10 μM, [125I]-Urotensin II
T5 construct: purchased Perkin Elmer Biosignal
T5 sequence (Q8VIH9 1-385): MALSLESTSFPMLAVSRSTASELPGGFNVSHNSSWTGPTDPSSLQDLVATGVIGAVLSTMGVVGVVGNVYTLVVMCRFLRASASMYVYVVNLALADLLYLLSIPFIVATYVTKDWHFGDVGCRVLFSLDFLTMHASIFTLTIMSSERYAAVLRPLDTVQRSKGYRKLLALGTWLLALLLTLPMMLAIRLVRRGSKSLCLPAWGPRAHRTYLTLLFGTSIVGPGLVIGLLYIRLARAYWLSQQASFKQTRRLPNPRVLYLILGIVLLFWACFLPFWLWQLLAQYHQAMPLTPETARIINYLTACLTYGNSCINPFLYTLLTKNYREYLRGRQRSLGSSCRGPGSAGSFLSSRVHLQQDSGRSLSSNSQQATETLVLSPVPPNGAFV
In short: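 Cloned mouse urotensin (mUR2) receptor membranes from Perkin Elmer Biosignal were immobilized in FlashPlate microplates using a proprietary coating. Each well got 19.5 μl buffer, then 0.5 μl of DMSO, reference ligand, or compound. Adding 5 μl of [125I]-Urotensin II, diluted to 5× final concentration in binding buffer, started binding. Plates were sealed with TopSeal-A and incubated 1 hour at room temperature in the dark. Wells were counted for 30 seconds each on a TopCount after a 60-second delay, and percentage inhibition was calculated.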

Human neurokinin (NK1) = target: T6, Human neurokinin (NK1) (Homo sapiens, UniProt P25103); test: Radioligand binding, human neurokinin NK1 membranes, filtration, [125I]-Substance P; conditions: compound at 10 μM, [125I]-Substance P
T6 construct: purchased Perkin Elmer Biosignal
In short: (§2)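 Percent inhibition of radioligand binding measured on recombinant human membranes: NK1 with [125I]-Substance P, KOP with [3H]-Diprenorphine. Incubation 1 h at room temperature, then harvest onto 0.3% PEI-soaked filters, cold Tris-HCl pH 7.4 washes and scintillation counting; non-specific binding from reference ligand wells.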

Human Melanocortin (MC4) = target: T7, Human Melanocortin (MC4) (Homo sapiens, UniProt P32245); test: Radioligand binding, human melanocortin MC4 membranes, FlashPlate, [125I]-NDP-αMSH; conditions: compound at 10 μM, [125I]-NDP-αMSH
T7 construct: purchased Perkin Elmer Biosignal
In short: as §1

Human κ-Opioid (KOP) = target: T8, Human κ-Opioid (KOP) (Homo sapiens, UniProt P41145); test: Radioligand binding, human κ-opioid (KOP) membranes, filtration, [3H]-Diprenorphine; conditions: compound at 10 μM, [3H]-Diprenorphine
T8 construct: purchased Perkin Elmer Biosignal
In short: as §2

[2] = target: T9, Human neuropeptide Y (NPY-Y1) (Homo sapiens, UniProt P25929); test: Radioligand binding, human neuropeptide Y NPY-Y1 membranes, FlashPlate, [125I]-PYY; conditions: compound at 10 μM, [125I]-PYY
T9 construct: purchased Perkin Elmer Biosignal
T9 sequence (P25929 1-384): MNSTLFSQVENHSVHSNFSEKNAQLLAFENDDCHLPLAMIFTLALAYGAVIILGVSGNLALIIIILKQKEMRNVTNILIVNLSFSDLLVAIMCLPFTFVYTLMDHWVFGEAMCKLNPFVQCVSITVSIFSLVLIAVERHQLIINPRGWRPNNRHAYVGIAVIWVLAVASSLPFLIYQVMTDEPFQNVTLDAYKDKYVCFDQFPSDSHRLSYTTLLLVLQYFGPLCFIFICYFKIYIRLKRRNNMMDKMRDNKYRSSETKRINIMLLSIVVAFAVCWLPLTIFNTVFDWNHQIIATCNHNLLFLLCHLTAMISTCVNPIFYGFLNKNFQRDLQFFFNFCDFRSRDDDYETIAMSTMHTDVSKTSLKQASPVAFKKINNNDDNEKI
In short: as §1

Human δ-opioid (DOP) = target: T10, Human δ-opioid (DOP) (Homo sapiens, UniProt P41143); test: Radioligand binding, human δ-opioid (DOP) membranes, FlashPlate, [3H]-Bremazocine; conditions: compound at 10 μM, [3H]-Bremazocine
T10 construct: purchased Perkin Elmer Biosignal
In short: as §1

Human Melanocortin (MC3) = target: T11, Human Melanocortin (MC3) (Homo sapiens, UniProt P41968); test: Radioligand binding, human melanocortin MC3 membranes, FlashPlate, [125I]-NDP-αMSH; conditions: compound at 10 μM, [125I]-NDP-αMSH
T11 construct: purchased Perkin Elmer Biosignal
In short: as §1

T8 sequence (P41145 whole entry): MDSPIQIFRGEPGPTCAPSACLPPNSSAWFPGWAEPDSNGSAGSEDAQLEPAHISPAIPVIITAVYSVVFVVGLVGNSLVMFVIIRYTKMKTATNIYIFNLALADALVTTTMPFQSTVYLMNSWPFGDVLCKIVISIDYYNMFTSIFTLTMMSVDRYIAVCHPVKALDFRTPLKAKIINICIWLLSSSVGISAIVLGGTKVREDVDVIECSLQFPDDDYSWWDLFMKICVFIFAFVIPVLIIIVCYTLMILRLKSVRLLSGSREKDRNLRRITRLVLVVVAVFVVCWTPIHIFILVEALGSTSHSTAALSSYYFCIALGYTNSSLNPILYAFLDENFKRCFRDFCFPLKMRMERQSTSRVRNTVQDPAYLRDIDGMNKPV
T10 sequence (P41143 whole entry): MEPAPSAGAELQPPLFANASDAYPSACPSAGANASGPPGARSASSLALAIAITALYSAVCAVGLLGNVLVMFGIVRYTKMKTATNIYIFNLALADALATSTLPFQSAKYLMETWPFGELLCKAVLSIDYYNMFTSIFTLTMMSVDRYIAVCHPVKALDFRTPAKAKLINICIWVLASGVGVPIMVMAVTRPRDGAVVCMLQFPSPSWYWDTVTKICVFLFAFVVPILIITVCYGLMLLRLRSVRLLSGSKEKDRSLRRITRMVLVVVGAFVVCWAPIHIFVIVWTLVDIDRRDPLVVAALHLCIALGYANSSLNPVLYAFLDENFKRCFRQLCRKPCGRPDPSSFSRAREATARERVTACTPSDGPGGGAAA
T7 sequence (P32245 whole entry): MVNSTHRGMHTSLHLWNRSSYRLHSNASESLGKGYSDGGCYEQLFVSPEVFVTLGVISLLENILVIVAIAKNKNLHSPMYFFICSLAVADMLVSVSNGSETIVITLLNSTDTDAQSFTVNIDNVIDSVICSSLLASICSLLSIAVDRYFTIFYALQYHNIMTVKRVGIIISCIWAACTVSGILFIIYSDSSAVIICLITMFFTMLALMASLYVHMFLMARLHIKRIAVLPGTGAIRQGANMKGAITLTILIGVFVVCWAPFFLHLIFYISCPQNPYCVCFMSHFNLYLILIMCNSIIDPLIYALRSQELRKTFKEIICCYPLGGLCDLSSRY
T11 sequence (P41968 whole entry): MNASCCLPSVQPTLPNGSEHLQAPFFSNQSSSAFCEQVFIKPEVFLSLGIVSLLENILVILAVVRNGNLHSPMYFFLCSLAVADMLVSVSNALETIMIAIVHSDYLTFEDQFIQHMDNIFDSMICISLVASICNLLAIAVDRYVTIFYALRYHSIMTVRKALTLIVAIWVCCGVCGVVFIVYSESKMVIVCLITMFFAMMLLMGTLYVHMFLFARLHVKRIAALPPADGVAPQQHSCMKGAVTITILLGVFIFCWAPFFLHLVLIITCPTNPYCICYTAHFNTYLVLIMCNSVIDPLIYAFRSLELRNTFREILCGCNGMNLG
T4 sequence (P33032 whole entry): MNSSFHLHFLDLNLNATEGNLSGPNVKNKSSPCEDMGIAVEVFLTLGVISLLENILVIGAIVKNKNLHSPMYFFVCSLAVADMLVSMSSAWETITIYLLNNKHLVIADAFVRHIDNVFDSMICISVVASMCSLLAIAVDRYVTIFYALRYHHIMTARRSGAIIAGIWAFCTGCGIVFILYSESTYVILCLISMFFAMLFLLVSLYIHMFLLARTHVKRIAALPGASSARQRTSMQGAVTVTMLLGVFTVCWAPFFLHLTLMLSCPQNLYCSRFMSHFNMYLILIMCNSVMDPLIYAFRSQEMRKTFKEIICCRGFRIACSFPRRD
T3 sequence (P35372 whole entry): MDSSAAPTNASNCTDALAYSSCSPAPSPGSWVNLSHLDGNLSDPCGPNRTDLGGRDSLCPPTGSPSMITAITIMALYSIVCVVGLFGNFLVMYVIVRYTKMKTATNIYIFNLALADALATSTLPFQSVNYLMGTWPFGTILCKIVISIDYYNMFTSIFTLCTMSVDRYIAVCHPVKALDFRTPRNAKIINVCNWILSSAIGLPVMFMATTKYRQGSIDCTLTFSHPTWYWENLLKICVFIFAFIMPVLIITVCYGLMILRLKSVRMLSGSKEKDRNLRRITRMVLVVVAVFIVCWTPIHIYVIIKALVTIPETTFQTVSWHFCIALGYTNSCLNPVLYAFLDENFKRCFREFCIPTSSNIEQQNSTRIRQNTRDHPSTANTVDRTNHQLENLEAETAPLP
T6 sequence (P25103 whole entry): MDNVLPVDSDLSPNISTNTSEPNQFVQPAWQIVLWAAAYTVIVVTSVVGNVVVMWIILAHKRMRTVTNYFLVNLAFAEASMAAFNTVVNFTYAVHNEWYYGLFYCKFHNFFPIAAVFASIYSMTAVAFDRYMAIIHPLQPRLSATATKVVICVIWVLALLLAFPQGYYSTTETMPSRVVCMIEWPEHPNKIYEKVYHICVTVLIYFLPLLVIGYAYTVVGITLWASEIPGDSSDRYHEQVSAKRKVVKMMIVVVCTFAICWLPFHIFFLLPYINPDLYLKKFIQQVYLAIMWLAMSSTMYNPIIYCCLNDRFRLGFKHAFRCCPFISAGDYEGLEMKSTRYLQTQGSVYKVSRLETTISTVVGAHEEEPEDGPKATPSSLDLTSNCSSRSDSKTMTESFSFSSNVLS
T1 sequence (P41146 whole entry): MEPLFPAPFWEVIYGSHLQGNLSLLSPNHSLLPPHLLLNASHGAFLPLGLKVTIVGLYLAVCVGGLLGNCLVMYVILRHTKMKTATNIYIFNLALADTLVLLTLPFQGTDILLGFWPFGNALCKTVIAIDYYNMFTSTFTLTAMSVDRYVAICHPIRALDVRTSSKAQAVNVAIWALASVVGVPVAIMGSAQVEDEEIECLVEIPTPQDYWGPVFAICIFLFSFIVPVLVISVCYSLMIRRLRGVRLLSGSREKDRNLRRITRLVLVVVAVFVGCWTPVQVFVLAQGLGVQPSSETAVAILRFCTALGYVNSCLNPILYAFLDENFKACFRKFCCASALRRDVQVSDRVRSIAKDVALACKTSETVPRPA
T2 sequence (Q99705 whole entry): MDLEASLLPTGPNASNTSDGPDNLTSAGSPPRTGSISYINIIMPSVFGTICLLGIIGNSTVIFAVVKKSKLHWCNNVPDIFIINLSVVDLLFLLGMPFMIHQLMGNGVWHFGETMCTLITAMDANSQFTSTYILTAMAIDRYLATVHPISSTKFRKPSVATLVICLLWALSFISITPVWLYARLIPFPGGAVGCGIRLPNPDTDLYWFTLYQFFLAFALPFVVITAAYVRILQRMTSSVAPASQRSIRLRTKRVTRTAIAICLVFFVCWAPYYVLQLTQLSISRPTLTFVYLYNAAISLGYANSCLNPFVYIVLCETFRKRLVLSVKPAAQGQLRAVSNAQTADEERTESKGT

## CO[C@H]1[C@H](O)[C@@H](COCc2cccc(O)c2)OC(OCc2ccc(Cl)cc2)[C@@H]1NC(=O)CNC(=N)N (stereo partly shown) [compound 155]
Human opioid (ORL1)
  A10 radioligand binding, percentage inhibition: − (“−” indicates less than 50% inhibition at 10 μM)
[1]; [125I]-S36057
  A6 radioligand binding, percentage inhibition: − (“−” indicates less than 50% inhibition at 10 μM)
Human μ-opioid (MOP)
  A7 radioligand binding, percentage inhibition: − (“−” indicates less than 50% inhibition at 10 μM)
Human melanocortin (MC5)
  A5 radioligand binding, percentage inhibition: + (“+” indicates greater than 50% inhibition at 10 μM)
Mouse urotensin (mUR2)
  A11 radioligand binding, percentage inhibition: − (“−” indicates less than 50% inhibition at 10 μM)
Human neurokinin (NK1)
  A8 radioligand binding, percentage inhibition: − (“−” indicates less than 50% inhibition at 10 μM)
Human Melanocortin (MC4)
  A4 radioligand binding, percentage inhibition: − (“−” indicates less than 50% inhibition at 10 μM)
Human κ-Opioid (KOP)
  A2 radioligand binding, percentage inhibition: − (“−” indicates less than 50% inhibition at 10 μM)
[2]
  A9 radioligand binding, percentage inhibition: − (“−” indicates less than 50% inhibition at 10 μM)
Human δ-opioid (DOP)
  A1 radioligand binding, percentage inhibition: − (“−” indicates less than 50% inhibition at 10 μM)
Human Melanocortin (MC3)
  A3 radioligand binding, percentage inhibition: − (“−” indicates less than 50% inhibition at 10 μM)

## COC[C@H]1OC(OCc2ccc3ccccc3c2)[C@H](NC(=O)CCCN)[C@@H](OCc2ccc3ccccc3c2)[C@@H]1O (stereo partly shown) [compound 338]
Human opioid (ORL1)
  A10: inhibition of radioligand binding, human opioid (ORL1): − (“−” indicates less than 50% inhibition at 10 μM)
[1]; [125I]-S36057
  A6: inhibition of radioligand binding, human melanin-concentrating hormone (MCH1): − (“−” indicates less than 50% inhibition at 10 μM)
Human μ-opioid (MOP)
  A7: inhibition of radioligand binding, human μ-opioid (MOP): + (“+” indicates greater than 50% inhibition at 10 μM)
Human melanocortin (MC5)
  A5: inhibition of radioligand binding, human melanocortin (MC5): − (“−” indicates less than 50% inhibition at 10 μM)
Mouse urotensin (mUR2)
  A11: inhibition of radioligand binding, mouse urotensin (mUR2): − (“−” indicates less than 50% inhibition at 10 μM)
Human neurokinin (NK1)
  A8: inhibition of radioligand binding, human neurokinin (NK1): + (“+” indicates greater than 50% inhibition at 10 μM)
Human Melanocortin (MC4)
  A4: inhibition of radioligand binding, human melanocortin (MC4): − (“−” indicates less than 50% inhibition at 10 μM)
Human κ-Opioid (KOP)
  A2: inhibition of radioligand binding, human κ-opioid (KOP): − (“−” indicates less than 50% inhibition at 10 μM)
[2]
  A9: inhibition of radioligand binding, human neuropeptide Y (NPY-Y1): − (“−” indicates less than 50% inhibition at 10 μM)
Human δ-opioid (DOP)
  A1: inhibition of radioligand binding, human δ-opioid (DOP): − (“−” indicates less than 50% inhibition at 10 μM)
Human Melanocortin (MC3)
  A3: inhibition of radioligand binding, human melanocortin (MC3): − (“−” indicates less than 50% inhibition at 10 μM)

## NCCCC(=O)NC1C(OCc2ccc3ccccc3c2)OC(COCc2ccc(Cl)cc2)C(O)C1OCc1ccccc1 (stereo not shown) [compound 398]
Human opioid (ORL1); human ORL1 membranes, 10 µM
  A10: inhibition of radioligand binding: − (“−” indicates less than 50% inhibition at 10 μM)
[1]; [125I]-S36057, human MCH1 membranes
  A6: inhibition of radioligand binding: − (“−” indicates less than 50% inhibition at 10 μM)
Human μ-opioid (MOP); human MOP membranes
  A7: inhibition of radioligand binding: − (“−” indicates less than 50% inhibition at 10 μM)
Human melanocortin (MC5); human MC5 membranes
  A5: inhibition of radioligand binding: + (“+” indicates greater than 50% inhibition at 10 μM)
Mouse urotensin (mUR2); mouse mUR2 membranes
  A11: inhibition of radioligand binding: − (“−” indicates less than 50% inhibition at 10 μM)
Human neurokinin (NK1); human NK1 membranes
  A8: inhibition of radioligand binding: + (“+” indicates greater than 50% inhibition at 10 μM)
Human Melanocortin (MC4); human MC4 membranes, 10 µM
  A4: inhibition of radioligand binding: + (“+” indicates greater than 50% inhibition at 10 μM)
Human κ-Opioid (KOP); human KOP membranes
  A2: inhibition of radioligand binding: − (“−” indicates less than 50% inhibition at 10 μM)
[2]; human NPY-Y1 membranes
  A9: inhibition of radioligand binding: − (“−” indicates less than 50% inhibition at 10 μM)
Human δ-opioid (DOP); human DOP membranes
  A1: inhibition of radioligand binding: − (“−” indicates less than 50% inhibition at 10 μM)
Human Melanocortin (MC3); human MC3 membranes, 10 µM
  A3: inhibition of radioligand binding: + (“+” indicates greater than 50% inhibition at 10 μM)

## NCCC(=O)NC1C(OCc2ccc(Cl)cc2)OC(COCc2ccc3ccccc3c2)C(O)C1OCc1ccc(Cl)cc1 (single isomer, unassigned) [compound 472]
Human opioid (ORL1); human ORL1 membranes
  A10: inhibition of radioligand binding: − (“−” indicates less than 50% inhibition at 10 μM)
[1]; [125I]-S36057, human MCH1 membranes, 10 µM
  A6: inhibition of radioligand binding: + (“+” indicates greater than 50% inhibition at 10 μM)
Human μ-opioid (MOP); human MOP membranes
  A7: inhibition of radioligand binding: − (“−” indicates less than 50% inhibition at 10 μM)
Human melanocortin (MC5); human MC5 membranes
  A5: inhibition of radioligand binding: + (“+” indicates greater than 50% inhibition at 10 μM)
Mouse urotensin (mUR2); mouse mUR2 membranes
  A11: inhibition of radioligand binding: − (“−” indicates less than 50% inhibition at 10 μM)
Human neurokinin (NK1); human NK1 membranes
  A8: inhibition of radioligand binding: + (“+” indicates greater than 50% inhibition at 10 μM)
Human Melanocortin (MC4); human MC4 membranes, 10 µM
  A4: inhibition of radioligand binding: + (“+” indicates greater than 50% inhibition at 10 μM)
Human κ-Opioid (KOP); human KOP membranes
  A2: inhibition of radioligand binding: − (“−” indicates less than 50% inhibition at 10 μM)
[2]; human NPY-Y1 membranes
  A9: inhibition of radioligand binding: − (“−” indicates less than 50% inhibition at 10 μM)
Human δ-opioid (DOP); human DOP membranes
  A1: inhibition of radioligand binding: − (“−” indicates less than 50% inhibition at 10 μM)
Human Melanocortin (MC3); human MC3 membranes
  A3: inhibition of radioligand binding: + (“+” indicates greater than 50% inhibition at 10 μM)

## CSC1OC(COCc2ccccc2)C(O)C(OCc2ccccc2)C1NC(=O)CCCNC(=N)N (stereo not shown) [compound 252]
Human opioid (ORL1); FlashPlate
  A10: inhibition of radioligand binding: − (“−” indicates less than 50% inhibition at 10 μM)
[1]; [125I]-S36057, FlashPlate
  A6: inhibition of radioligand binding: − (“−” indicates less than 50% inhibition at 10 μM)
Human μ-opioid (MOP); FlashPlate
  A7: inhibition of radioligand binding: − (“−” indicates less than 50% inhibition at 10 μM)
Human melanocortin (MC5); FlashPlate
  A5: inhibition of radioligand binding: − (“−” indicates less than 50% inhibition at 10 μM)
Mouse urotensin (mUR2); FlashPlate
  A11: inhibition of radioligand binding: − (“−” indicates less than 50% inhibition at 10 μM)
Human neurokinin (NK1); filtration
  A8: inhibition of radioligand binding: + (“+” indicates greater than 50% inhibition at 10 μM)
Human Melanocortin (MC4); FlashPlate
  A4: inhibition of radioligand binding: − (“−” indicates less than 50% inhibition at 10 μM)
Human κ-Opioid (KOP); filtration
  A2: inhibition of radioligand binding: − (“−” indicates less than 50% inhibition at 10 μM)
[2]; FlashPlate
  A9: inhibition of radioligand binding: − (“−” indicates less than 50% inhibition at 10 μM)
Human δ-opioid (DOP); FlashPlate
  A1: inhibition of radioligand binding: − (“−” indicates less than 50% inhibition at 10 μM)
Human Melanocortin (MC3); FlashPlate
  A3: inhibition of radioligand binding: − (“−” indicates less than 50% inhibition at 10 μM)
